One may read the IC50 as the midpoint of a concentration-inhibition curve.

Our source for the IC50 values is patent EP4741386A1 (Jiangsu Yahong Meditech Co., Ltd., priority 2023, dated 2025).

Assay [1] concerns the target T1, Recombinant human His6-USP1/His6-UAF1 complex protein (Homo sapiens, UniProt O94782).
T1 construct: His6; purchased R&D E-568-050
Kind of assay: In vitro inhibitory activity against USP1 (Ubiquitin Rhodamine 110 fluorescence detection, 384-well plate). The format is biochemical. To be noted: Ub-Rho substrate, 1 hour pre-incubation, read after 30 minutes. An outline of the steps:
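Fluorescence assay measuring inhibition of recombinant human His6-USP1/His6-UAF1 complex with Ubiquitin-Rhodamine 110 substrate. Compounds held as 50 mM stocks in 100% DMSO and dispensed by acoustic transfer into modified Tris assay buffer.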

For assay [2], the system named is MDA-MB-436. Kind of assay: CTG experiment for cell viability (CellTiter-Glo, 96-well plate, 7 days). The format is cell-based. Particulars: Homo sapiens, MDA-MB-436, 168 h, MDA-MB-436 cells, 7 days culture with compound. An outline of the steps:
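MDA-MB-436 cells in DMEM were plated in 96-well format, treated with compounds, and cultured 7 days at 37°C. After removing the medium, cells were given PBS plus CellTiter-Glo reagent, incubated 10 min at room temperature, and luminescence was read. Curves were fitted as for the enzyme assay.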
Background: In ATP-based viability assays light output follows the ATP content of the culture.

T1 sequence (O94782 whole entry): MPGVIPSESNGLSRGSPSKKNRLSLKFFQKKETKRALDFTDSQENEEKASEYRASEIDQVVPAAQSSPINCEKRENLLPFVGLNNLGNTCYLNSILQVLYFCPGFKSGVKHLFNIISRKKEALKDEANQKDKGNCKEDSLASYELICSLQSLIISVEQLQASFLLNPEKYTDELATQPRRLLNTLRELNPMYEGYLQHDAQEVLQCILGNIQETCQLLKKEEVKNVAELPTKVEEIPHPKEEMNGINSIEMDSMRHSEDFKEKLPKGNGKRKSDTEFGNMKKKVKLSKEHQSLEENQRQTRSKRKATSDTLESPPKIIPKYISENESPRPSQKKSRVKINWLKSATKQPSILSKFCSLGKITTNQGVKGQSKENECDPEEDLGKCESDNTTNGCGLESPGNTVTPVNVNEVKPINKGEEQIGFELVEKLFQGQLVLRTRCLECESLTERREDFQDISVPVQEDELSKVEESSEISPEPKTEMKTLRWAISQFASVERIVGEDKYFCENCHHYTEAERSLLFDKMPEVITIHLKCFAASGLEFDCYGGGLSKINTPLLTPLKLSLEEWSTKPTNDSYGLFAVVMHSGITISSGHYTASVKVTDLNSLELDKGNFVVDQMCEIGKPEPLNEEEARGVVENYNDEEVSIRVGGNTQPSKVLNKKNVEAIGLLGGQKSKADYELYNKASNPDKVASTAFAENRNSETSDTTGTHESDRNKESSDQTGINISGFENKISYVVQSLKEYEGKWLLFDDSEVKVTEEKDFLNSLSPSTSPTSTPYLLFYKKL
T1 sequence (Q8TAF3 whole entry partner): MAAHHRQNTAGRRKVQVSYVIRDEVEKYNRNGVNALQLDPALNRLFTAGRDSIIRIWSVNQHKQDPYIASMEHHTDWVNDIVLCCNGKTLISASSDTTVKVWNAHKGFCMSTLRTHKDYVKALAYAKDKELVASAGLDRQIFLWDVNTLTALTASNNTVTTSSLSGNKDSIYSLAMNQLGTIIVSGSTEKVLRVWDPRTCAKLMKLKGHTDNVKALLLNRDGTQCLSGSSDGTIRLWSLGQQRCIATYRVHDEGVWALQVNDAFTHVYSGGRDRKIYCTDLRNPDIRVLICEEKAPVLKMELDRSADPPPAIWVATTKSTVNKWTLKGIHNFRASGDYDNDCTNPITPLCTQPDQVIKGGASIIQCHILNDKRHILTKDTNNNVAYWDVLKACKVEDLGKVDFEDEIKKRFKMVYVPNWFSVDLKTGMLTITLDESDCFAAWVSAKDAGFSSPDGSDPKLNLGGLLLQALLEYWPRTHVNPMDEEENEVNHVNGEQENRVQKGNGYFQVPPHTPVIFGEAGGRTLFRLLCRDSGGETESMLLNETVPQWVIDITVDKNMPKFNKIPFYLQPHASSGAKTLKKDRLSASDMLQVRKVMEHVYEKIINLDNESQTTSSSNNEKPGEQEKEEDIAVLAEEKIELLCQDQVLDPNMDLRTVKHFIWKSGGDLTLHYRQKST

`COc1cnc(-c2cccc3c2N(C)CC3)nc1NCc1ccc(-c2nc(C(F)(F)F)cn2C)cc1` [Example 145, 5-Methoxy-N-(4-(1-methyl-4-(trifluoromethyl)-1H-imidazol-2-yl)benzyl)-2-(1-methylindolin-7-yl)pyrimidin-4-amine]: the IC50 was 19 nM in assay [1] and 731 nM in assay [2].
On to `COc1cc(CNc2nc(-c3c(OC)ncnc3C3CC3)nc3ccoc23)ccc1-n1nc(C(F)(F)F)cc1C` [Example 122, 2-(4-Cyclopropyl-6-methoxypyrimidin-5-yl)-N-(3-methoxy-4-(5-methyl-3-(trifluoromethyl)-1H-pyrazol-1-yl)benzyl)furo[3,2-d]pyrimidin-4-amine], for which the IC50 in assay [1] came out at 13 nM; in assay [2], 82.8 nM.
On to `COc1cnc(-c2c(OC)ncnc2C2CC2)nc1NCc1ccc(-c2nc(C(F)(F)F)cn2C(C)C)cc1` [Example 106, 4'-Cyclopropyl-N-(4-(1-isopropyl-4-(trifluoromethyl)-1H-imidazol-2-yl)benzyl)-5,6'-dimethoxy-[2,5'-bipyrimidin]-4-amine], for which the IC50 in assay [1] amounted to 2.9 nM; in assay [2] it was 4.7 nM.
As to `Cc1noc(C(C)C)c1-c1nc(NCc2ccc(-c3ccccn3)cc2)c2occc2n1` [Example 189, 2-(5-Isopropyl-3-methylisoxazol-4-yl)-N-(4-(pyridin-2-yl)benzyl)furo[3,2-d]pyrimidin-4-amine], the IC50 in assay [1] was 16 nM; in assay [2], 307 nM.
Take `CC(C)c1ccccc1-c1nc(NCc2ccc(-c3ccccn3)cc2)c2occc2n1` [Example 32, 2-(2-isopropylphenyl)-N-(4-(pyridin-2-yl)benzyl)furo [3,2-d] pyrimidin-4-amine]: the IC50 in assay [1] came to 2.8 nM; in assay [2], 336 nM.
Turning to `[2H]C([2H])([2H])N(CC12CCC(c3nc(C(F)(F)F)cn3C)(CC1)CC2)c1nc(-c2c(OC)ncnc2C2CC2)ncc1OC` [Example S4, 4'-Cyclopropyl-5,6'-dimethoxy-N-(methyl-d3)-N-((4-(1-methyl-4-(trifluoromethyl)-1H-imidazol-2-yl)bicyclo[2.2.2]oct-1-yl)methyl)-[2,5'-bipyrimidin]-4-amine], the IC50 in assay [1] is 4.9 nM; in assay [2], 2.3 nM.
For `COc1ncnc(C2CC2)c1-c1ncc(OC(F)F)c(NCC2CCN(c3nc(C(F)(F)F)cn3C)CC2)n1` [Example 133, 4'-Cyclopropyl-5-(difluoromethoxy)-6'-methoxy-N-((1-(1-methyl-4-(trifluoromethyl)-1H-imidazol-2-yl)piperidin-4-yl)methyl)-[2,5'-bipyrimidin]-4-amine], the IC50 in assay [1] is 15 nM; in assay [2], 135 nM.
On to `COc1cnc(-c2c(OC)ncnc2C2CC2F)nc1N(C)C[C@H]1CC[C@H](c2nc(C(F)(F)F)cn2C)CC1` (stereo partly drawn) [Example S35], for which the values for the IC50 in assay [1] and in assay [2] were 6.8 nM and 3.5 nM, respectively.
For `C#Cc1cnc(-c2ccccc2C(C)C)nc1NCc1ccc(-c2nc(C(F)(F)F)cn2C)cc1` [Example 85, 5-Ethynyl-2-(2-isopropylphenyl)-N-(4-(1-methyl-4-(trifluoromethyl)-1H-imidazol-2-yl)benzyl)pyrimidin-4-amine], in that order: 0.47 nM and 22.5 nM.
As to `COc1cnc(-c2ccccc2N(C)C)nc1NCc1ccc(-c2nc(C(F)(F)F)cn2C)cc1` [Example 159, 2-(2-(Dimethylamino)phenyl)-5-methoxy-N-(4-(1-methyl-4-(trifluoromethyl)-1H-imidazol-2-yl)benzyl)pyrimidin-4-amine], the IC50 in assay [1] came out at 1.7 nM; in assay [2], 39.4 nM.
The matching figures for `COc1ncnc(C2CC2)c1-c1ncc(Cl)c(NCc2ccc(-c3nc(C(F)(F)F)cn3CF)cc2)n1` [Example 126, 5-Chloro-4'-cyclopropyl-N-(4-(1-(fluoromethyl)-4-(trifluoromethyl)-1H-imidazol-2-yl)benzyl)-6'-methoxy-[2,5'-bipyrimidin]-4-amine]: 13 nM and 22.7 nM.
For the compound `[2H]C([2H])([2H])N(Cc1ccc(-c2nc(C(F)(F)F)cn2CF)cc1)c1nc(-c2c(OC)ncnc2C2CC2)ncc1F` [Example 130, 4'-Cyclopropyl-5-fluoro-N-(4-(1-(fluoromethyl)-4-(trifluoromethyl)-1H-imidazol-2-yl)benzyl)-6'-methoxy-N-(methyl-d3)-[2,5'-bipyrimidin]-4-amine], the IC50 in assay [1] was determined as 19 nM; in assay [2], 45.6 nM.
As to `COc1cnc(-c2c(OC)ncnc2C2CC2)nc1NCC12CCC(c3nc(C(F)(F)F)cn3C3CCC3)(CC1)OC2` [Example S16, N-((1-(1-Cyclobutyl-4-(trifluoromethyl)-1H-imidazol-2-yl)-2-oxabicyclo[2.2.2]oct-4-yl)methyl)-4'-cyclopropyl-5,6'-dimethoxy-[2,5'-bipyrimidin]-4-amine], the IC50 in assay [1] amounted to 34 nM; in assay [2], 40.3 nM.
In the case of `COc1cnc(-c2ccccc2C(C)C)nc1NCc1ccc(-n2nc(C(F)(F)F)cc2C)cc1` [Example 7, 2-(2-Isopropylphenyl)-5-methoxy-N-(4-(5-methyl-3-(trifluoromethyl)-1H-pyrazol-1-yl)benzyl)pyrimidin-4-amine], the IC50 in assay [1] was 4.5 nM; in assay [2] it was 102 nM.
With `COc1ncnc(C2CC2)c1-c1nc(NCc2ccc(-c3nc(C(F)F)cn3C)cc2)c2occc2n1` [Example 123, 2-(4-Cyclopropyl-6-methoxypyrimidin-5-yl)-N-(4-(4-(difluoromethyl)-1-methyl-1H-imidazol-2-yl)benzyl)furo[3,2-d]pyrimidin-4-amine], the values for the concentration for half-maximal inhibition (IC50) in assay [1] and in assay [2] were 20 nM and 169 nM, respectively.
As to `CC(C)c1ccccc1-c1ncc(O)c(NCc2ccc(-c3nc(C(F)(F)F)cn3C)cc2)n1` [Example 89, 2-(2-Isopropylphenyl)-4-((4-(1-methyl-4-(trifluoromethyl)-1H-imidazol-2-yl)benzyl)amino)pyrimidin-5-ol], the results for the 50% inhibitory concentration (IC50) in assay [1] and in assay [2] were 14.4 nM and 243 nM, respectively.
Regarding `COC(=O)Cc1cnc(-c2ccccc2C(C)C)nc1NCc1ccc(-c2nc(C(F)(F)F)cn2C)cc1` [Example 91, Methyl 2-(2-(2-isopropylphenyl)-4-((4-(1-methyl-4-(trifluoromethyl)-1H-imidazol-2-yl)benzyl)amino)pyrimidin-5-yl)acetate], the IC50 in assay [1] was 1.3 nM; in assay [2] it was 479 nM.
Take `CC(C)n1ncc(Cl)c1-c1nc(NCc2ccc(-c3ccccn3)cc2)c2occc2n1` [Example 166, 2-(4-Chloro-1-isopropyl-1H-pyrazol-5-yl)-N-(4-(pyridin-2-yl)benzyl)furo[3,2-d]pyrimidin-4-amine]: the IC50 in assay [1] turned out to be 2.1 nM; in assay [2], 41.4 nM.
The matching figures for `CC(C)c1ccccc1-c1ncc(OC(F)F)c(NCc2ccc(-c3nc(C(F)(F)F)cn3C)cc2)n1` [Example 86, 5-(Difluoromethoxy)-2-(2-isopropylphenyl)-N-(4-(1-methyl-4-(trifluoromethyl)-1H-imidazol-2-yl)benzyl)pyrimidin-4-amine]: 1.1 nM and 29.4 nM.
Turning to `COc1cc(-c2nc(C(F)(F)F)cn2C)ccc1CNc1nc(-c2ccccc2C2CC2)ncc1OC` [Example 171, 2-(2-Cyclopropylphenyl)-5-methoxy-N-(2-methoxy-4-(1-methyl-4-(trifluoromethyl)-1H-imidazol-2-yl)benzyl)pyrimidin-4-amine], the half-inhibitory concentration (IC50) in assay [1] amounted to 2.3 nM; in assay [2], 84.7 nM.
Consider `COc1cnc(-c2ccccc2C(C)C)nc1NCC1CCC(c2ccccn2)CC1` (stereo not drawn) [Example 63, 2-(2-Isopropylphenyl)-5-methoxy-N-((4-(pyridin-2-yl)cyclohexyl)methyl)pyrimidin-4-amine], for which the IC50 in assay [1] turned out to be 3.3 nM; in assay [2] it was 30 nM.
For `COc1cnc(-c2c(OC)ncnc2C2CC2F)nc1NCC12CCC(c3nc(C(F)(F)F)cn3C)(CC1)CC2` (stereo not drawn) [Example S18, 4'-(2-Fluorocyclopropyl)-5,6'-dimethoxy-N-((4-(1-methyl-4-(trifluoromethyl)-1 H-imidazol-2-yl)bicyclo[2.2.2]oct-1-yl)methyl)-[2,5'-bipyrimidin]-4-amine], in that order: 12 nM and 10.7 nM.
As for `CCOCCOc1ccc(CNc2nc(-c3ccccc3C(C)C)ncc2OC)cc1` [Example 68, N-(4-(2-Ethoxyethoxy)benzyl)-2-(2-isopropylphenyl)-5-methoxypyrimidin-4-amine], the IC50 stood at 3.2 nM in assay [1] and 267 nM in assay [2].
For `COc1cnc(-c2c(OC)ncnc2C2CC2)nc1N(C)Cc1ccc(-c2nc(C(F)(F)F)cn2C)cc1` [Example 8, 4'-Cyclopropyl-5,6'-dimethoxy-N-methyl-N-(4-(1-methyl-4-(trifluoromethyl)-1H-imidazol-2-yl)benzyl)-[2,5'-bipyrimidin]-4-amine], in that order: 1.4 nM and 2.3 nM.
Take `COc1cnc(-c2c(OC)ncnc2C2CC2)nc1N(Cc1ccc(-c2nc(C(F)(F)F)cn2C)cc1)OC` [Example 142, N-(4'-Cyclopropyl-5,6'-dimethoxy-[2,5'-bipyrimidin]-4-yl)-O-methyl-N-(4-(1-methyl-4-(trifluoromethyl)-1H-imidazol-2-yl)benzyl)hydroxylamine]: the IC50 in assay [1] worked out at 25 nM; in assay [2] it was 50 nM.
For `COc1cnc(-c2c(OC)ncnc2C2CC2)nc1N(C)C[C@H]1CC[C@H](c2nc(C(F)(F)F)cn2C)CC1` [Example S21], the IC50 in assay [1] came out at 6 nM; in assay [2] it was 4.7 nM.
For `COc1cnc(-c2c(OC)ncnc2C2CC2)nc1NCC12C3C4C1C1C2C3C41c1nc(C(F)(F)F)cn1C` (stereo not drawn) [Example 215], in that order: 2.2 nM and 8.7 nM.
